This note sets out measurements from patent publication US20230117680A1, “CYCLOPHILIN D INHIBITORS AND USES THEREOF” (The Broad Institute, Inc., priority 2019, published 2023).

The structures appear in SMILES notation. “Also recorded” adds a separate entry of the source.

Assay [1] deals with mPTP in isolated mice kidney mitochondria. Description: inhibition of mPTP in isolated mitochondria (tolerated Ca2+ pulses before full mPTP opening). The following applies: result in words. The procedure: In isolated mice kidney mitochondria, the maximum number of Ca^2+ pulses that could be tolerated before full mPTP opening was measured (see FIG. 24).
Assay [2] concerns 10 other cyclophilins with reported prolyl isomerase activity. Description: cyclophilin specificity screen: CypD against the other cyclophilins. Type of assay: biochemical. From the text: (§1) The selectivity of a compound described herein in inhibiting the activity of a first cyclophilin (e.g., CypD) over a second cyclophilin may be measured by the quotient of the IC50 value of the compound in inhibiting the activity of the second cyclophilin over the IC50 value of the compound in inhibiting the activity of the first cyclophilin. The selectivity of a compound described herein in modulating the activity of a first cyclophilin over a second cyclophilin may also be measured by the quotient of the Kd value of an adduct of the compound and the second cyclophilin over the Kd value of an adduct of the compound and the first cyclophilin (e.g., CypD). […] In certain embodiments, selectivity for inhibiting a first cyclophilin over other cyclophilins is measured by Surface Plasmon Resonance (SPR) assays as disclosed in the Examples.
(§2) Following the synthesis of the indicated library members, in vitro inhibition (IC50) assays of these hits were conducted to obtain IC50 inhibitory data. For the IC50 assays, a chymotrypsin coupled PPIase assay using Suc-AAPF-AMC as the peptide substrate was used, whereby isomerization of a peptide substrate Suc-AAPF-AMC from the cis to trans conformation allowed for proteolysis via excess a-chymotrypsin, releasing the C-terminal coumarin fluorophore.
Subsequently, to determine if the compounds could both access the S2 pocket and display CypD specificity, JOMBtrans and compound 49 were screened against the 10 other cyclophilins with reported prolyl isomerase activity. […] Co-crystal structures of JOMBtrans and 49 were solved with CypD.

Assay [3] concerns the target CypD (Homo sapiens, UniProt P30405). Kind of assay: chymotrypsin coupled PPIase assay (Suc-AAPF-AMC substrate), CypD inhibition. Type of assay: biochemical.
Description: as §1, §2

Sequence of CypD (P30405 30-207): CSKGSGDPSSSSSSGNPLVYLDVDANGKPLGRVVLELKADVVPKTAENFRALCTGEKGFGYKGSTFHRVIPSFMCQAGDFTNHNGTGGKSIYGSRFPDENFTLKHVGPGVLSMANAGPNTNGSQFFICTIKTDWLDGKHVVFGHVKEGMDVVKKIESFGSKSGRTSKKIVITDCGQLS

In the case of `CC(=O)c1ccc(-c2ccc(C[C@@H]3NC(=O)[C@]4(Cc5ccccc5)CCCN(C4)C(=O)/C=C/C(=O)NCC[C@@H](C(N)=O)NC(=O)Cc4ccccc4CNC3=O)cc2)cc1` [A-22b], the “number of tolerated Ca2+ pulses before full mPTP opening” value in assay [1] is listed as “extended pulse number”. For the molecule `NCCOCCNC(=O)[C@@H]1CCNC(=O)/C=C/C(=O)N2CCC[C@](Cc3ccccc3)(C2)C(=O)N[C@@H](Cc2ccc(-c3ccc(C(=O)O)cc3)cc2)C(=O)NCc2ccccc2CC(=O)N1` [A-54], the “specificity / selectivity profile for CypD (in words)” value (from here on “specificity / selectivity profile”) in assay [2] (result in words) was “best specificity profiles; also recorded: preference for CypD”. For the molecule `Cc1cc(C(=O)O)ccc1-c1ccc(C[C@@H]2NC(=O)[C@]3(Cc4ccccc4)CCCN(C3)C(=O)/C=C/C(=O)NCC[C@@H](C(=O)NCCOCCN)NC(=O)Cc3ccccc3CNC2=O)cc1` [A-57], the “specificity / selectivity profile” value in assay [2] (result in words) is “best specificity profiles; also recorded: preference for CypD”. Take `NCCOCCNC(=O)[C@@H]1CCNC(=O)/C=C/C(=O)N2CCC[C@](Cc3ccccc3)(C2)C(=O)N[C@@H](Cc2ccc(-c3ccc(CC(=O)O)cc3)cc2)C(=O)NCc2ccccc2CC(=O)N1` [A-63]: the “specificity / selectivity profile” value in assay [2] (result in words) is listed as “preference for CypD”. For `NC(=O)[C@@H]1CCNC(=O)/C=C/C(=O)N2CCC[C@](Cc3ccccc3)(C2)C(=O)N[C@@H](Cc2ccc(-c3ccc(CCC(=O)O)cc3)cc2)C(=O)NCc2ccccc2CC(=O)N1` [A-81b], in assay [1], the “number of tolerated Ca2+ pulses before full mPTP opening” value is recorded as “extended pulse number; also recorded: almost as potent as CsA”.

`NCCOCCNC(=O)[C@@H]1CCNC(=O)/C=C/C(=O)N2CCC[C@](Cc3ccccc3)(C2)C(=O)N[C@@H](Cc2ccc(-c3ccc(/C=C/C(=O)O)cc3)cc2)C(=O)NCc2ccccc2CC(=O)N1` [A-82]: in assay [2] (result in words), the “specificity / selectivity profile” value is listed as “preference for CypD”. For the molecule `NCCOCCNC(=O)[C@@H]1CCNC(=O)/C=C/C(=O)N2CCC[C@](Cc3ccccc3)(C2)C(=O)N[C@@H](Cc2ccco2)C(=O)NCc2ccccc2CC(=O)N1` [compound 49], the “increase in potency compared to JOMBtrans” value in assay [3] is 75 fold. The IC50 in assay [3] (read-out: potency for CypD) is 200 nM. Besides, the “potency for CypD (in words)” value in assay [3] (result in words) is given as “low potency”. Further, in assay [2], the “specificity for CypD compared to any other cyclophilins” value is recorded as “approximately 10 fold”. Besides, in assay [2] (result in words), the “decrease in inhibition against other family members compared to CypD” value was “at most a ten-fold decrease” and the “specificity / selectivity profile” value was “low specificity; also recorded: very promiscuous cyclophilin inhibition”.
